Experimental data published in paper PMC8085982 (Microbial Biotechnology, 2021).
Read-outs that look alike come from different tables or passages of the source.

How the values were obtained:
[1] = test system: Pa5930 laccase; assay: initial rates, OD420, sigmoidal; format: biochemical, Pediococcus acidilactici; conditions: 50 mM sodium citrate pH 3.4, 24 °C; sigmoidal kinetics
[2] = test system: Pp4816 laccase; assay: initial rates, OD420, sigmoidal; format: biochemical, Pediococcus pentosaceus; conditions: 50 mM sodium citrate pH 3.4, 24 °C; sigmoidal kinetics
[3] = test system: Pp4816 laccase; conditions: 50 mM Tris-HCl pH 7.2, 24 °C
[4] = test system: Pa5930 laccase; conditions: 50 mM Tris-HCl pH 7.2, 24 °C

Km [1] [µM]	Km [2] [µM]	Km [3] [µM]	Km [4] [µM]	Structure (SMILES)
330 ± 40	310 ± 30	–	–	CCn1c(=NN=c2sc3cc(S(=O)(=O)O)ccc3n2CC)sc2cc(S(=O)(=O)O)ccc21 [ABTS, 2,2‐azino‐bis(3‐ethylbenzothiazoline‐6‐sulfonic acid)]
–	–	6330 ± 1320	3110 ± 850	COc1cccc(OC)c1O [2,6-DMP, 2,6‐dimethoxyphenol]
